The text below walks through data of US20100136573A1, “DIAGNOSING NEURODEGENERATIVE DISEASES” (priority 2007, published 2010).

The subject of one data set is H4 neuroglioma cells. The data set can be described thus: Proteasome-induced toxicity, Western blot. The format is cell-based. Here is the method: H4 neuroglioma cells were grown in Opti-Mem plus 10% FBS and 1% pen-strep. Cells were plated in 6-well plates and at 90% confluency treated with 10 μM proteasome inhibitor I (PSI) (EMD Chemicals, Inc. San Diego, Calif.) or 100 μM pan-caspase inhibitor (Z-VAD-FMK) (EMD Chemicals, Inc. San Diego, Calif.) separately or in combination. Twenty-four hours after treatment, the cells were harvested for subsequent Western blot analysis in the Co-IP buffer (50 mM Tris-HCl, pH 7.4, 1 M NaCl, 1% Triton-X-100, 5 mM EDTA) plus 1% SDS, PMSF, and protease and phosphatase inhibitors.
Protein concentrations of cells lysates were measured by a standard BCA assay (Pierce, Rockford, Ill.). Then, the samples were heated in Laemmli's buffer, and equal amounts of protein were loaded into 10-well 10% or 4-20% Tris-glycine gels (Novex, San Diego, Calif.). After transfer, blots were blocked with 5% nonfat dry milk in TBST ([…]) for 1 hour, and then incubated with rabbit polyclonal TDP-43 antibody (1:500; ProteinTech Group, Inc, Chicago, Ill.), rabbit polyclonal caspase-3 antibody (1:1000; Cell Signaling, Beverly, Mass.), HSP70 (1:2000; Stressgen, Ann Arbor, Mich.), GADPH (1:5000; Biodesign International, Kennebunkport, Me.), or mouse monoclonal β-actin antibody (1:5000, Sigma, Saint Louis, Miss.) overnight at 4° C. Membranes were washed three times each for 10 minutes with TBST and then incubated with anti-mouse or anti-rabbit IgG conjugated to horseradish peroxidase (1:2000; Jackson ImmunoResearch, West Grove, Pa.) for 1 hour. Membranes were then washed three times each for 10 minutes, and protein expression was visualized by ECL treatment and exposure to film.

In another data set the test system is TDP-43. Kind of data set: Proteolytic processing of TDP-43 and caspase-3, Western blot of HeLa and H4 cells. The class given is cell-based.
For the next data set, the system named is HEK293 cells. Kind of data set: Inclusion formation and distribution of GFP-TDP-43 constructs, confocal microscopy. The following applies: for cellular distribution: HEK293, confocal fluorescence microscopy. The class given is cell-based. How it is done:
HEK293 cells, grown on glass coverslips, were transfected with 0.3 μg of expression vector (GFP, GFP-TDP-43, GFP-TDP-43-caspase-resistant, GFP-TDP-35, GFP-TDP-25, or GFP-TDP-ΔNR1) by using Lipofectamine 2000 (Invitrogen) according to the manufacturer's instructions then subjected to immunofluorescence analysis 48 hours later. To determine if the cytoplasmic inclusion were insoluble, some cells were treated with 0.2% Triton X-100 prior to fixation, in order to remove soluble protein. To determine if the formation of inclusion was aggresome-dependent, some cells were treated with 1 μM nocodazole (Sigma) for 24 hours after 6 hours of transfection. Finally, to examine if inclusions were ubiquitinated, cells were cotransfected with 0.3 μg of a TDP-43 construct and 0.5 μg HA-ubiquitin, then subjected to immunofluorescence analysis 72 hours later.
(§1) The cultured HEK293 and differentiated M17 cells were fixed with 4% paraformaldehyde in phosphate-buffered saline (PBS) at 4° C. for 15 minutes and permeabilized with PBS-0.5% Triton X-100 for 10 minutes. After blocking with 5% BSA for 1 hour at 37° C., the cells were incubated overnight at 4° C. with mouse monoclonal HA antibody (1:1000, Roche Applied Science), rabbit polyclonal activated caspase-3 antibody (1:250, Cell Signaling), rabbit polyclonal anti-pTDP-43 (which detects phosphorylated S409/S410; 1:1000, COSMO BIO CO., LTD), mouse monoclonal Flag antibody (1:1000, Sigma), rabbit polyclonal M2085 (1:1000), or rabbit polyclonal M2079 (1:1000). After washing, cells were incubated with the Alexa 568-conjugated goat anti-mouse IgG secondary antibody (1:1000, Molecular Probes) or anti-rabbit IgG secondary antibody (1:500, Molecular Probes) at 37° C. for 2 hours. Finally, Hoechst 33258 (1 μg/mL, Invitrogen) was used to stain the nuclei. Images were obtained on a Zeiss LSM 510 META confocal microscope.

For a further data set, the system named is HeLa or H4 cells. The data set can be described thus: Immunofluorescence and confocal microscopy of TDP-43 localization. The format is cell-based. The settings on record: 1 μM for 3 hours, in contrast to untreated cells.
In the next data set the target is T1, hnRNPA2 (Homo sapiens, UniProt P22626).
T1 construct: expressed in transfected cells; host or cells: HeLa cells
The data set can be described thus: Co-immunoprecipitation with Flag-tagged hnRNPA2. The format is binding. The settings on record: HeLa cells, probing for GFP. Here is the method:
(§2) For co-immunoprecipitation studies, HeLa cells were transfected with 1 or 2 μg of each plasmid. Cells were harvested 48 hours later using Co-IP buffer (50 mM Tris-HCl, pH 7.4, 1 M NaCl, 1% Triton X-100, 5 mM EDTA) containing PMSF as well as protease and phosphatase inhibitors. The lysates were sonicated and centrifuged at 16,000 g for 20 minutes. The protein concentration of supernatants was determined by BCA assay (Thermo Scientific). Supernatant containing 500 μg of total protein was combined with Anti-Flag M2 agarose (Sigma) and incubated overnight at 4° C. with gentle shaking. The agarose was pelleted by centrifugation at 2,500 g for 5 minutes and washed with Co-IP buffer 6 times. Captured protein was eluted from the beads using loading buffer and resolved by SDS-PAGE for Western blot analysis.

For another data set, the target named is T2, Flag-TDP-43 (Homo sapiens, UniProt Q13148).
T2 construct: the exon skipping activity in cells overexpressing full-length TDP-43 was examined; expressed in transfected cells; host or cells: HeLa cells
Kind of data set: Co-immunoprecipitation with Flag-TDP-43. The class given is binding. The following applies: HeLa cells, probing for GFP. Here is the method:
as §2

For data set [1], the system named is TDP-43 exon 9 skipping activity. Kind of data set: CFTR mini-gene splicing assay. The class given is cell-based. The following applies: for CFTR exon 9 exclusion (endogenous TDP-43 background): HeLa cells cotransfected with CFTR minigene, RT-PCR, compared to GFP; for exon skipping activity in cells overexpressing Flag-TDP-43: cotransfected with CFTR mini-gene and Flag-TDP-43. Here is the method: The CFTR mini-gene splicing assay was conducted as described elsewhere (Pagani et al., J. Biol. Chem., 275(28):21041-21047 (2000) and Ayala et al., FEBS Lett., 580(5):1339-1344 (2006)). In brief, Hela cells were co-transfected with 1 μg of minigene construct and 1 μg of GFP-fusion protein expression vector. […] Then, 2 μg of total RNA was used to synthesize cDNA using the SuperScript III First-Strand Synthesis System (Invitrogen). For the PCR, 2 μL of cDNA was used in a 20 μL of reaction according to the manufacturer's protocol for Taq PCR Core Kit (Qiagen). The amplification conditions consisted of an initial denaturation step at 94° C. for 3 minutes, followed by 30 cycles of 94° C. for 30 seconds, 62° C. for 60 seconds, and 72° C. for 90 seconds.

Data set [2] relates to differentiated M17 neuroblastoma cells. The data set can be described thus: Toxicity assay (LDH release, activated caspase-3 staining). The class given is cell-based. The settings on record: for activated caspase-3 staining: confocal microscopy; for LDH levels compared to cells expressing only GFP: medium collected 72 hours after transfection. Here is the method: M17 neuroblastoma cells, seeded at 2.5×10^3 cells per well in 24-well plates, were grown in Neurobasal A/B27 medium containing Glutamax (Invitrogen) and 10 μM retinoic acid (Sigma) to induce differentiation. Seven days later, cells were transfected with 0.2 μg of expression vector for 72 hours. The medium was collected, and a LDH assay (Promega) was used to measure LDH levels as an indicator of toxicity. Then, cells were fixed, and immunofluorescent staining was done using an antibody against activated caspase-3 (1:250; Cell signaling) and the nuclear marker, bisbenzimide (Hoechst 33258).
as §1
In general terms: LDH in the medium is a marker of cell lysis.

The mark [3] stands for this setting: co-treated with PSI 10 μM and caspase inhibitor 100 μM, 24 hours.

Where a SMILES comes first, the peptide text is derived from it. The star is where a group is joined. Cbz = O=C(OCc1ccccc1)*; OtBu = CC(C)(C)O*; CH2F = FC*

T1 sequence (P22626 1-341 isoform P22626-2, species assumed): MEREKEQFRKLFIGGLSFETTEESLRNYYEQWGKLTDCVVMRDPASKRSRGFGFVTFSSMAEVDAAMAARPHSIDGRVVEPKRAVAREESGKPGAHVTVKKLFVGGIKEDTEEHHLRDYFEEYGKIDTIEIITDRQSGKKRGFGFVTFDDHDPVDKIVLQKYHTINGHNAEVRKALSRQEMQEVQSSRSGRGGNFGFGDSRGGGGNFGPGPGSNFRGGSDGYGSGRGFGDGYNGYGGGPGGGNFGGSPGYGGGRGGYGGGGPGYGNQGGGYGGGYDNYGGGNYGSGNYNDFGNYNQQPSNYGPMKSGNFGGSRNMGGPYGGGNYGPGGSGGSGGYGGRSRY
T2 sequence (Q13148 whole entry): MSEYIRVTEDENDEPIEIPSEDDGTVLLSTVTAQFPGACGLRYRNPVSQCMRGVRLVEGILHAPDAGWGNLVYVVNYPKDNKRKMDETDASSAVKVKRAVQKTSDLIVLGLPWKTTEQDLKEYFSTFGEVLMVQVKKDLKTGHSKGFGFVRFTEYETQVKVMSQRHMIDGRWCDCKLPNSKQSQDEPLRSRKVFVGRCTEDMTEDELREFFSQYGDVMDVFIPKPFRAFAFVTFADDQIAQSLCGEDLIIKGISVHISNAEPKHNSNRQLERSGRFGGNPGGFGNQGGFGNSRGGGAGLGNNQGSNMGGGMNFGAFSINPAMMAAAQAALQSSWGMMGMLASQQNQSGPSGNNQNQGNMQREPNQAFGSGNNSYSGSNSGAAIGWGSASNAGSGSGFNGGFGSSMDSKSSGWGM

Turning to `CC[C@H](C)[C@H](NC(=O)OCc1ccccc1)C(=O)N[C@@H](CCC(=O)OC(C)(C)C)C(=O)N[C@@H](C)C(=O)N[C@H](C=O)CC(C)C` [PSI] (Cbz-IE(OtBu)AL-aldehyde), in the data set with H4 neuroglioma cells (PSI 10 μM, 24 hours), the HSP70 levels entry is “increased”; the “cleavage of endogenous cellular TDP-43” value is “cleaved into ˜35 and ˜25 kD fragments”; the “cleaved (active) caspase-3 levels” value was “marked increase”; the “full length TDP-43 band (˜43 kD)” value is recorded as “reduction”.
Take `COC(=O)C[C@H](NC(=O)[C@H](C)NC(=O)[C@@H](NC(=O)OCc1ccccc1)C(C)C)C(=O)CF` [Z-VAD (OMe)-FMK] (Cbz-Val-Ala-Asp(OMe)-CH2F): the caspase-3 activity entry in the data set on TDP-43 (PGRN RNAi-treated HeLa cells plus pan-caspase inhibitor) is listed as “suppresses”. Also, the “production of ˜35 and ˜25 kD TDP-43 fragments” value in the data set with TDP-43 (PGRN siRNA-treated cells, inhibitor 100 μM for additional 48 hours) is reported as “inhibited”. The HSP70 levels entry in the data set on H4 neuroglioma cells (PSI plus caspase inhibitor) was “persisted”. Moreover, in the data set with H4 neuroglioma cells (setting [3]), the “PSI-induced caspase-3 activity” value is given as “suppressed” and the “generation of proteolytic TDP-43 fragments” value is given as “inhibited”.
Take `COC(=O)Nc1nc2ccc(C(=O)c3cccs3)cc2[nH]1` [nocodazole, reference compound]: the “effect on inclusions formed by GFP-TDP-25 and GFP-TDP-35” value with HEK293 cells (1 μM for 24 hours after 6 hours of transfection) was “not disrupted”.
For the molecule `CN[C@@H]1C[C@H]2O[C@@](C)([C@@H]1OC)n1c3ccccc3c3c4c(c5c6ccccc6n2c5c31)C(=O)NC4` [staurosporine], the TDP-43 cellular localization result in the data set with HeLa or H4 cells is “increased cytoplasmic TDP-43 staining”.
Turning to “GFP-TDP1-175: GFP-tagged C-terminal deletion mutant lacking the glycine rich region”, the “binding to hnRNPA2” value with hnRNPA2 is “failed to bind”. For the same molecule, the “binding to Flag-TDP-43” value in the data set with Flag-TDP-43 is on record as “bound strongly”.
“GFP-TDP1-257: GFP-tagged C-terminal deletion product of TDP-43”: the “binding to Flag-TDP-43” value with Flag-TDP-43 is reported as “bound strongly”.
Take “GFP-TDP76-414: GFP-tagged second C-terminal fragment (76-414) that retains nuclear distribution”: in data set [1], the “CFTR exon 9 exclusion (endogenous TDP-43 background)” value is “did not promote exon 9 exclusion” and the “exon skipping activity in cells overexpressing Flag-TDP-43” value is reported as “markedly reduced”. Further, in the data set with hnRNPA2, the “binding to hnRNPA2” value was “did indeed interact”. Also, the “binding to Flag-TDP-43” value in the data set with Flag-TDP-43 was “only weakly interacted”.
As for “GFP-TDP-43-caspase-resistant: GFP-tagged TDP-43 with aspartic acid at positions 89 and 219 substituted to glutamic acid”, in the data set with HEK293 cells, the cellular distribution result is “localized almost exclusively to the nucleus”. Besides, in data set [2], the “activated caspase-3 staining” value is “did not stain” and the “LDH levels compared to cells expressing only GFP” value is “comparably increased”.
As to “GFP-TDP-43: full-length wild-type TDP-43 tagged at the amino terminal with enhanced GFP”, the cellular distribution result with HEK293 cells is recorded as “localized almost exclusively to the nucleus”. In data set [2], the “activated caspase-3 staining” value was “did not stain” and the “LDH levels compared to cells expressing only GFP” value is on record as “comparably increased”. Besides, in data set [1], the “CFTR exon 9 exclusion (endogenous TDP-43 background)” value is listed as “marked increase in exon exclusion” and the “exon skipping activity in cells overexpressing Flag-TDP-43” value is reported as “promoted exon 9 exclusion”. Further, in the data set with hnRNPA2, the “binding to hnRNPA2” value was “interact with hnRNPA2”. For the same molecule, in the data set with Flag-TDP-43, the “binding to Flag-TDP-43” value is “bound strongly”.
